According to PubChem BioAssay (NCI):
Values joined by “and” are separate entries in the source; they are usually repeats but may differ in a detail not shown here. Identical values can stand only once.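 Each compound was tested at five concentrations against cells in 96-well plates for 48 hours. At the GI50, growth is halved. TGI: concentration producing complete growth inhibition.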

Experiments:
Assay in all cases: NCI anticancer screen, dose series, 48 h
[1] = system: HCT-116 colon
[2] = system: KM12 colon
[3] = system: NCI-H460 lung
[4] = system: NCI/ADR-RES ovarian
[5] = system: OVCAR-4 ovarian
[6] = system: RPMI-8226 leukemia
[7] = system: SK-MEL-5 melanoma
[8] = system: SNB-19 CNS
[9] = system: SW-620 colon
[10] = system: M14 melanoma

For `C=C1CCCC(C)(C)[C@@H]1CC/C(C)=C/Cn1c2cccc(=O)c-2nc2ccccc21`, the GI50 [1] was 2.55 µM, the TGI [1] was 6.62 µM and 2.73 µM and the GI50 [2] was 7.96 µM. For the same compound, the TGI [2] was 45.4 µM and 10.4 µM, the GI50 [3] was 14 µM and the GI50 [4] was 4.23 µM. The GI50 [5] was 6.28 µM, the GI50 [6] was 3.06 µM and the TGI [6] was 9.68 µM and 17.8 µM. For the same compound, the TGI [7] was 13.8 µM, the GI50 [8] was 9.54 µM and the TGI [8] was 60.2 µM and 15.8 µM. It also gave a GI50 [9] of 5.87 µM.

Compound `CC(C)(C)c1ccc(O)c(Br)c1` has a TGI [1] greater than 100 µM, a TGI [2] greater than 100 µM and a TGI [10] greater than 100 µM. For the same compound, the TGI [3] was greater than 100 µM, the TGI [4] was greater than 100 µM and the TGI [5] was greater than 100 µM. The TGI [6] was greater than 100 µM, the TGI [7] was greater than 100 µM and the TGI [8] was greater than 100 µM. It also gave a TGI [9] greater than 100 µM.

For `COc1cccc(/C=N/[N-]C(N)=O)c1[O-].[Cu+2].[OH3+].c1cnc2c(c1)ccc1cccnc12`, the TGI [1] was 27.8 µM, the TGI [2] was 47.1 µM and the TGI [10] was 28.8 µM. For the same compound, the TGI [3] was 79.9 µM, the TGI [5] was 24.7 µM and the TGI [6] was 91.4 µM. For the same compound, the TGI [7] was 16.1 µM, the TGI [8] was 34.2 µM and the TGI [9] was greater than 100 µM.

Work on `O=c1oc2c(ccc3occc32)c(N2CCCCC2)c1-c1ccccc1` yielded a TGI [1] greater than 100 µM, a TGI [2] greater than 100 µM and a TGI [3] greater than 100 µM. For the same compound, the TGI [4] was greater than 100 µM, the TGI [5] was greater than 100 µM and the TGI [7] was greater than 100 µM. The TGI [8] was greater than 100 µM and the TGI [9] was greater than 100 µM.

Work on `Fc1cc(C2=C[C@H](c3ccc4c(c3)OCO4)NC(=S)N2)c(Cl)cc1Cl` yielded a TGI [1] greater than 100 µM, a TGI [2] greater than 100 µM and a TGI [10] greater than 100 µM. For the same compound, the TGI [3] was greater than 100 µM, the TGI [4] was greater than 100 µM and the TGI [5] was greater than 100 µM. The TGI [6] was greater than 100 µM, the TGI [7] was 25.9 µM and the TGI [8] was greater than 100 µM. For the same compound, the TGI [9] was greater than 100 µM.

`O=C(N/N=C\c1ccc([N+](=O)[O-])cc1)Nc1ccccc1` gave a TGI [1] greater than 100 µM, a TGI [2] greater than 100 µM and a TGI [10] greater than 100 µM. The TGI [3] was greater than 100 µM, the TGI [4] was greater than 100 µM and the TGI [5] was greater than 100 µM. For the same compound, the TGI [6] was greater than 100 µM, the TGI [7] was greater than 100 µM and the TGI [8] was greater than 100 µM. It also gave a TGI [9] greater than 100 µM.

`CC(C)(C)OC(=O)N1C(C2=COc3ccccc3O2)=COc2cccnc21` showed a TGI [1] of 4.98 µM, a TGI [2] of 3.97 µM and a TGI [10] of 3.65 µM. It also gave a TGI [3] of 3.67 µM, a TGI [4] of 4.7 µM and a TGI [5] of 4.2 µM. The TGI [6] was 4.43 µM, the TGI [7] was 3.17 µM and the TGI [9] was 4.56 µM.

Compound `NC(N)=NS(=O)(=O)c1ccc(Nc2c3ccccc3nc3c(C(=O)N4CCN(CCO)CC4)ccc(Cl)c23)cc1` has a TGI [1] greater than 100 µM, a TGI [2] greater than 100 µM and a TGI [10] greater than 100 µM. For the same compound, the TGI [3] was greater than 100 µM, the TGI [5] was greater than 100 µM and the TGI [6] was greater than 100 µM. The TGI [7] was greater than 100 µM and the TGI [8] was greater than 100 µM.

With `Clc1ccc(NCc2nnc(COc3ccc(OCc4nnc(CNc5ccc(Cl)cc5)o4)c(Cl)c3)o2)cc1` the TGI [1] was greater than 100 µM, the TGI [2] was greater than 100 µM and the TGI [10] was greater than 100 µM. It also gave a TGI [3] greater than 100 µM, a TGI [4] of 68.5 µM and a TGI [6] of 36.9 µM. It also gave a TGI [7] of 53.6 µM, a TGI [8] greater than 100 µM and a TGI [9] greater than 100 µM.

In the case of `O=C(CSc1nc2ccc(Cl)cc2c(=O)n1-c1ccccc1)N=Nc1c(O)[nH]c2ccc(F)cc12`, the TGI [1] is reported as 3.28 µM, the TGI [2] is reported as 11.8 µM and the TGI [10] is reported as 11 µM. For the same compound, the TGI [3] was 9.77 µM, the TGI [4] was 8.44 µM and the TGI [5] was 5.65 µM. The TGI [6] was 3.9 µM, the TGI [7] was 10.3 µM and the TGI [8] was 10.5 µM. It also gave a TGI [9] of 5.43 µM.

`COc1cc(S(=O)(=O)N/N=C/C=C/c2ccccc2)c(OC)cc1NC(C)=O` was tested, and the TGI [1] was greater than 100 µM, the TGI [2] was greater than 100 µM and the TGI [10] was greater than 100 µM. The TGI [4] was greater than 100 µM, the TGI [5] was greater than 100 µM and the TGI [6] was 60.9 µM. It also gave a TGI [7] of 33.3 µM, a TGI [8] greater than 100 µM and a TGI [9] greater than 100 µM.

Compound `COC(=O)c1c(O)ccc2c1c1c(n2Cc2ccccn2)C(=O)c2ccccc2C1` has a TGI [1] greater than 100 µM, a TGI [2] greater than 100 µM and a TGI [10] greater than 100 µM. For the same compound, the TGI [3] was greater than 100 µM, the TGI [4] was greater than 100 µM and the TGI [5] was greater than 100 µM. For the same compound, the TGI [6] was 59.9 µM, the TGI [7] was greater than 100 µM and the TGI [8] was greater than 100 µM. The TGI [9] was greater than 100 µM.

`Cc1cc(N2CCOCC2)nc(N(CCCNc2ccnc3cc(Cl)ccc23)Cc2ccc3c(c2)OCO3)n1` was tested, and the GI50 [1] was 0.464 µM, the TGI [1] was 1.63 µM and the GI50 [10] was 1.4 µM. It also gave a TGI [10] of 2.73 µM, a GI50 [3] of 1.45 µM and a TGI [3] of 2.99 µM. It also gave a GI50 [6] of 1.45 µM, a TGI [6] of 4 µM and a GI50 [7] of 1.54 µM. For the same compound, the TGI [7] was 2.88 µM, the GI50 [8] was 4.18 µM and the TGI [8] was 35.7 µM. The GI50 [9] was 1.44 µM and the TGI [9] was 3.05 µM.

Work on `O=CC(O)C(O)C(O)COc1cc(CO)cc2c1C(=O)c1ccccc1C2=O` (stereo not drawn) yielded a TGI [1] greater than 100 µM, a TGI [2] greater than 100 µM and a TGI [10] greater than 100 µM. It also gave a TGI [3] greater than 100 µM, a TGI [5] greater than 100 µM and a TGI [6] greater than 100 µM. It also gave a TGI [7] greater than 100 µM, a TGI [8] greater than 100 µM and a TGI [9] greater than 100 µM.

In the case of `CC(Br)C(=O)c1ccc2cc(Br)c3ccccc3c2c1` (stereo not drawn), the TGI [1] is reported as 29.9 µM, the TGI [2] is reported as 32.5 µM and the TGI [10] is reported as 31 µM. The TGI [3] was 30.9 µM, the TGI [4] was 35 µM and the TGI [5] was 32.2 µM. It also gave a TGI [6] of 21.2 µM, a TGI [7] of 27.3 µM and a TGI [8] of 32.7 µM. For the same compound, the TGI [9] was 26.3 µM.

With `CC(C)=CCC/C(C)=C/CC/C(C)=C/[C@@H]1[C@@H](CO)[C@]1(C)CC/C=C(\C)CCC=C(C)C` the TGI [1] was greater than 100 µM, the TGI [2] was greater than 100 µM and the TGI [10] was greater than 100 µM. The TGI [3] was greater than 100 µM, the TGI [4] was 55 µM and the TGI [5] was greater than 100 µM. For the same compound, the TGI [6] was 71.8 µM, the TGI [7] was greater than 100 µM and the TGI [8] was greater than 100 µM. For the same compound, the TGI [9] was 66.9 µM.
